Measurements from US12569422B2, “Composition and method of inhibiting cortisone reductase by applying it to the skin” (AMOREPACIFIC CORPORATION, priority 2018, dated 2026).

Experiments:
Assay type in all cases: cell-based
keratin 1 (KRT1) = assay: Western blotting of keratinocyte differentiation marker KRT1 in UVB-irradiated keratinocytes; conditions: human keratinocytes, coumestrol 1 μM, 5 μM, 10 μM, FIG. 2
Procedure: (§1) Human keratinocytes (normal human epidermal keratinocytes, NHEK) were cultured in a 6-well plate incubator. Specifically, the normal human epidermal keratinocytes were cultured by replacing it with phosphate-buffered saline (PBS) after 24 hours to irradiate UVB (25 mJ/cm^2) and then, adding cortisone (10 μM) to NHEK culture media having no hydrocortisone. Subsequently, the cell culture solution was collected to measure a cortisol concentration in an ELISA method, and the results are shown in FIG. 1.
(§2) In addition, after separating proteins from the human keratinocytes using a RIPA lysis buffer, protein expression of keratinocyte differentiation markers (KRT1, Filaggrin) was confirmed through western blotting, and the results are shown in FIGS. 2 and 3. Referring to FIGS. 2 and 3, in the wells containing the coumestrol (1 μM, 5 μM, 10 μM), gene expression of the keratinocyte differentiation markers (KRT1, Filaggrin) inhibited by the ultraviolet (UVB) rays was increased in the keratinocytes. In other words, the gene expression of the keratinocyte differentiation markers inhibited by the ultraviolet (UVB) rays in the keratinocytes was restored by the coumestrol, and accordingly, the coumestrol inhibited activity of the cortisone reductase and reduced the cortisol concentration, eventually restoring the gene expression of the keratinocyte differentiation markers.

Filaggrin = assay: Western blotting of keratinocyte differentiation marker filaggrin in UVB-irradiated keratinocytes; conditions: human keratinocytes, coumestrol 1 μM, 5 μM, 10 μM, FIG. 3
Procedure: as §1, §2

[1] = molecular target: T1, 11β-hydroxysteroid dehydrogenase type 1 (Homo sapiens, UniProt P28845); assay: Cortisol concentration in cell culture solution of UVB-irradiated, cortisone-treated keratinocytes (ELISA); conditions: coumestrol 1 μM, 5 μM
T1 construct: endogenous in cells; host or cells: normal human epidermal keratinocytes (NHEK)
Procedure: as §1

T1 sequence (P28845 whole entry): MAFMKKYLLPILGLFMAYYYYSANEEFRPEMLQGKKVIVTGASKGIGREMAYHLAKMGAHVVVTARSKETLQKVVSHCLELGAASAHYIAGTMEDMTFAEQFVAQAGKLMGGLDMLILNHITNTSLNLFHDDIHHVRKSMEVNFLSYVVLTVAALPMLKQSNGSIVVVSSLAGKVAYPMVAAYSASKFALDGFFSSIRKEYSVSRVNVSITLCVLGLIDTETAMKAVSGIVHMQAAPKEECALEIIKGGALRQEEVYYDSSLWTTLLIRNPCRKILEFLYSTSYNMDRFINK

O=c1oc2cc(O)ccc2c2oc3cc(O)ccc3c12 [coumestrol]
expression of keratinocyte differentiation marker KRT1 inhibited by UVB (keratin 1 (KRT1)): increased
expression of keratinocyte differentiation marker Filaggrin inhibited by UVB (Filaggrin): increased
cortisol concentration in cell culture solution ([1]; NHEK, UVB 25 mJ/cm^2, cortisone 10 μM, compared with control before UV irradiation, FIG. 1): not significantly increased
activity of 11β-hydroxysteroid dehydrogenase type 1 (cortisone reductase) ([1]; conclusion from cortisol ELISA in NHEK, 10 μM): inhibit activity
